Legend:
Assay in all cases: Herbicide activity test in green house
Type in all cases: in vivo
[1] = tested on: Italian grass; details: sprayed at 2-4 leaves, evaluated on 14th day
Protocol: (§1) In culture dishes white mustard, pig weed, fat hen, autumn wheat, Italian grass and corn seeds were sown. When the seeds were sprouted 10% EC and 10% WSC were prepared from the compounds to be tested, and after dilution with water 0.2% spray was prepared. 2-4 leaves plants were sprayed with this liquid so that for each compound a dose corresponding to 2.5-5-10 kg./ha active ingredient was used. On the 14th day after the treatment the extent of the injury of the plants was evaluated and expressed in %.

[2] = tested on: autumn wheat; details: sprayed at 2-4 leaves, evaluated on 14th day
Protocol: as §1

[3] = tested on: corn; details: sprayed at 2-4 leaves, evaluated on 14th day
Protocol: as §1

[4] = tested on: fat hen; details: sprayed at 2-4 leaves, evaluated on 14th day
Protocol: as §1

[5] = tested on: pig weed; details: sprayed at 2-4 leaves, evaluated on 14th day
Protocol: as §1

[6] = tested on: white mustard; details: sprayed at 2-4 leaves, evaluated on 14th day
Protocol: as §1

[7] = tested on: white mustard; details: dose 1.25 kg/ha, sprayed at 2-4 leaves, evaluated on 14th day
[8] = tested on: pig weed; details: dose 1.25 kg/ha, sprayed at 2-4 leaves, evaluated on 14th day
[9] = tested on: fat hen; details: dose 1.25 kg/ha, sprayed at 2-4 leaves, evaluated on 14th day
[10] = tested on: Italian grass; details: dose 1.25 kg/ha, sprayed at 2-4 leaves, evaluated on 14th day
[11] = tested on: autumn wheat; details: dose 1.25 kg/ha, sprayed at 2-4 leaves, evaluated on 14th day
[12] = tested on: corn; details: dose 1.25 kg/ha, sprayed at 2-4 leaves, evaluated on 14th day

| SMILES | extent of the injury of the plants, Italian grass ([1]; dose 2.5 kg/ha) [%] | extent of the injury of the plants, Italian grass ([1]; dose 5.0 kg/ha) [%] | extent of the injury of the plants, autumn wheat ([2]; dose 2.5 kg/ha) [%] | extent of the injury of the plants, autumn wheat ([2]; dose 5.0 kg/ha) [%] | extent of the injury of the plants, corn ([3]; dose 2.5 kg/ha) [%] | extent of the injury of the plants, corn ([3]; dose 5.0 kg/ha) [%] | extent of the injury of the plants, fat hen ([4]; dose 2.5 kg/ha) [%] | extent of the injury of the plants, fat hen ([4]; dose 5.0 kg/ha) [%] | extent of the injury of the plants, pig weed ([5]; dose 2.5 kg/ha) [%] | extent of the injury of the plants, pig weed ([5]; dose 5.0 kg/ha) [%] | extent of the injury of the plants, white mustard ([6]; dose 2.5 kg/ha) [%] | extent of the injury of the plants, white mustard ([6]; dose 5.0 kg/ha) [%] | extent of the injury of the plants, white mustard [7] [%] | extent of the injury of the plants, pig weed [8] [%] | extent of the injury of the plants, fat hen [9] [%] | extent of the injury of the plants, Italian grass [10] [%] | extent of the injury of the plants, autumn wheat [11] [%] | extent of the injury of the plants, corn [12] [%] |
| --- | --- | --- | --- | --- | --- | --- | --- | --- | --- | --- | --- | --- | --- | --- | --- | --- | --- | --- |
| O=[N+]([O-])c1cc([N+](=O)[O-])c(O)c(C(F)(F)F)c1 [2-trifluoromethyl-4,6-dinitro-phenol-Na] | 10 | 15 | 0 | 15 | 10 | 15 | 90 | 100 | 85 | 100 | 80 | 100 | 50 | 60 | 70 | 0 | 0 | 0 |
| O=[N+]([O-])c1cc([N+](=O)[O-])c(O)c(C(F)(F)F)c1 [2-trifluoromethyl-4,6-dinitro-phenol-diethanol-amine] | – | 10 | – | 10 | – | 10 | 75 | 80 | 60 | 85 | 60 | 80 | 40 | 50 | 70 | 0 | 0 | 0 |
| CC(=O)Oc1c([N+](=O)[O-])cc([N+](=O)[O-])cc1C(F)(F)F [2-trifluoromethyl-4,6-dinitrophenol methyl carbonyl] | 10 | 20 | 0 | 10 | 0 | 10 | 90 | 100 | 80 | 95 | 70 | 90 | 40 | 50 | 70 | 0 | 0 | 0 |
| CCC(=O)Oc1c([N+](=O)[O-])cc([N+](=O)[O-])cc1C(F)(F)F [2-trifluoromethyl-4,6-dinitro-phenol-ethyl carbonyl] | 0 | 10 | 0 | 10 | 0 | 10 | 70 | 80 | 60 | 80 | 50 | 80 | 40 | 40 | 60 | 0 | 0 | 0 |
| O=[N+]([O-])c1cc([N+](=O)[O-])c(O)c(C(F)(F)F)c1 [2-trifluoromethyl-4,6-dinitro-phenol, 2-Trifluoromethyl-4,6-dinitro-phenol] | 10 | 30 | 5 | 10 | 5 | 15 | 90 | 100 | 85 | 100 | 75 | 95 | 45 | 50 | 75 | 0 | 0 | 0 |
| O=[N+]([O-])c1cc([N+](=O)[O-])c(O)c(C(F)(F)F)c1 [2-trifluoromethyl-4,6-dinitro-phenol-K] | 10 | 15 | 0 | 15 | 10 | 15 | 90 | 100 | 85 | 100 | 75 | 90 | 65 | 45 | 70 | 0 | 0 | 0 |
| CNC.O=[N+]([O-])c1cc([N+](=O)[O-])c(O)c(C(F)(F)F)c1 [2-trifluoromethyl-4,6-dinitro-phenol-dimethyl-amine] | 0 | 20 | 0 | 10 | 0 | 10 | 75 | 85 | 65 | 80 | 55 | 75 | 45 | 50 | 70 | 0 | 0 | 0 |
